Source: publication PMC7866984, “Molecular Structure, In Vitro Anticancer Study and Molecular Docking of New Phosphate Derivatives of Betulin” (Molecules, 2021)
Read-outs that look alike come from different tables or passages of the source.

Key:
breast cancer T47D cells [1] = assay: WST-1 cell viability assay, T47D; type: cell-based, human; details: Homo sapiens, T47D, 72 h, read-out: IC50 ± SD, T47D
Experimental: (§1) Evaluation of the effect of new betulin derivatives on the viability of the cultured cells was performed using the WST-1(water soluble tetrazolium salt) assay. Betulin 1 and cisplatin were used as the reference compounds.
(§2) The synthesized compounds and references were tested for cytotoxic activity in vitro against human cancer cell lines such as amelanotic melanoma (C-32, ATCC, Rockville, MD, USA), glioblastoma (SNB-19, DSMZ, Braunschweig, Germany), and breast cancer (T47D, and MDA-MB-231, ATCC, Rockville, MD, USA). Cell cultures were maintained using DMEM (Lonza, Basel, Switzerland) supplemented with 10% fetal bovine serum (FBS) (Biological Industries Cromwell, CT, USA) and penicillin (10,000 U/mL) –streptomycin (10 mg/mL) mix (Lonza, Basel, Switzerland).
(§3) Cultures were performed in 96-well plates (Nunc Thermo Fisher Scientific, Waltham, MA, USA). Cells were seeded at 5 × 10^4/well and incubated for 24 h (at 37 °C, 5% CO2, constant humidity). Then, the medium was replaced with a fresh one with the addition of test compounds in the concentration: 25; 12.5; 6.25; 3.12; 1.56; 0.78; 0.39; 0 µg/mL and incubated again for a further 72 h. After this time, the WST-1 test (Roche Molecular Biochemicals, Mannheim, Germany) was performed to assess the metabolic activity of the cells. The principle of the WST-1 colorimetric test is based on the ability of live cells to decompose bright red tetrazole salts of WST-1 to dark red formazan. The reaction is mediated by mitochondrial dehydrogenases and correlates with the number of cells and their metabolic activity. The absorbance was measured at λ = 450 nm with a UVM340 microplate reader (Biogenet, Józefów, Poland). Results were expressed as a mean value of at least three independent experiments performed in triplicate.

[2] = RP-TLC experimental lipophilicity; type: physicochemical; details: for RM0 / logPTLC: RP-TLC; for RM0: acetone/Tris buffer pH 7.4, extrapolated to zero acetone; for logPTLC: from RM0 by calibration equation; for -b: slope of regression plot RM = RM0 + bC
Description: Lipophilicity is an important physicochemical parameter related to the biological activity of compounds. This descriptor, contained in Lipiński’s rule of five, concerns the transport of a compound through the biological membrane system and the formation of a compound–receptor complex. To assess the lipophilic nature of triterpenoids 3–5, 6a–6e, and 7a–7e, the reverse phase chromatography (RP-TLC) method was used (chromatographic procedure by RP-TLC is included in the Supplementary Materials). The theoretical characteristics of the chromatographic parameters (RM0, log PTLC) of the tested derivatives were also performed. […]
Chromatographic procedure by RP-TLC
The experimental lipophilicity parameters was determined using reversed-phase thin-layer chromatography (RP-TLC). The stationary phase was an aluminium backed silica gel RP-18 F254 S plates (Merck, Darmstadt, Germany). Chloroform solutions of reference compounds […]
(acetanilide, 4-bromoacetophenone, benzophenone, anthracene, DDT) and triterpenes 3-5, 6a-6e and 7a-7e were spotted on to the plates in the amount of 2 µL. The chromatograms were performed in triplicate for each compound. The chromatographic chambers were filled of mobile phases consisting of a mixture of acetone (POCh, Gliwice, Poland) and aqueous solution of buffer Tris [(tris-hydroxymethyl)aminomethane] (Fluka, Loughborough, 0.2 M, pH 7.4). The percent acetone volume was varied within the range of 90-60%, in 5% increments. The spots of compounds were visualized by spraying the plates with 10% ethanolic solution of sulphuric acid (VI) and heating for 3 min at 110°C [60]]. The RM values were calculated by the equation RM = log (1/Rf-1) on the basis of average Rf values. The RM0 parameters were obtained by extrapolating on the acetone content to zero, according to the equation RM = RM0 + bC (C – the percentage concentration of acetone in the mobile phase, b – the slope of the regression plot).
The experimental lipophilicity as log PTLC for triterpenes 3-5, 6a-6e and 7a-7e was calculated […]
obtained on the correlation between the literature log Plit values and the experimental RM0 values […]
Table S5. The theoretical values of lipophilicity for tested compounds 3-5, 6a-6e and 7a- […]
Table S6. The correlation matrix for theoretically obtained lipophilicity parameters of compounds 3-5, 6a-6e and 7a-7e. […]

[3] = system: amelanotic melanoma (C-32) cells; assay: WST-1 cell viability assay, C-32; type: cell-based, human; details: WST-1, 72 h, read-out: IC50 ± SD, C-32
Experimental: as §1, §2, §3

[4] = system: glioblastoma (SNB-19) cells; assay: WST-1 cell viability assay, SNB-19; type: cell-based, human; details: WST-1, 72 h, read-out: IC50 ± SD, SNB-19
Experimental: as §1, §2, §3

[5] = system: TP53 mRNA in SNB-19 and C-32 cells; assay: qRT-PCR expression of TP53; type: cell-based, human; details: 24 h, half of IC50
Experimental: (§4) In our work, we assessed the influence of the tested compounds on the expression of selected genes related to apoptosis. […] We examined their influence on the transcriptional activity of genes encoding a proliferation marker (histone H3), a cell cycle regulator (p53), and proteins related to the mitochondrial apoptosis pathway (BCL-2 and BAX). The study was performed after 24-h exposure of the cultured cells to the test compounds (half of IC50).
(§5) The influence of tested compounds on the transcriptional activity of cells of the genes H3, TP53, BCL-2, and BAX was investigated. Assays were performed by real-time qRT-PCR on an Opticon TM DNA Engine (MJ Research, USA) using the QuantTect® SYBR® Green qRT-PCR Kit (Qiagen, Valencia, […]). Cells were exposed to compound 7a and 7b for 24 h at a concentration equal to half of IC50 for appropriate cell line. For the reference compound, cisplatin, concentrations were 0.8 µg/mL (SNB-19 line) and 0.6 µg/mL (C-32 line). RNA extraction was performed on spin columns using the Quick RNATM MiniPrep kit (Zymo Research, Irvine, CA, USA). RNA extracts were assessed qualitatively and quantitatively. Total RNA integrity was checked electrophoretically on a 1.2% agarose gel with ethidium bromide. The amount and purity of total RNA in the extracts were determined spectrophotometrically with the HP8452A spectrophotometer (Hewlett Packard, Waldbronn, Germany).

[6] = system: BAX/BCL-2 mRNA in SNB-19 and C-32 cells; assay: qRT-PCR BAX/BCL-2 ratio; type: cell-based, human; details: 24 h, half of IC50
Experimental: as §4, §5

[7] = system: histone H3 mRNA in SNB-19 and C-32 cells; assay: qRT-PCR expression of H3; type: cell-based, human; details: 24 h, half of IC50
Experimental: as §4, §5

[8] = system: breast cancer MDA-MB-231 cells; assay: WST-1 cell viability assay, MDA-MB-231; type: cell-based, human; details: Homo sapiens, MDA-MB-231, 72 h, read-out: IC50 ± SD, MDA-MB-231
Experimental: as §1, §2, §3

[9] = system: glioblastoma (SNB-19) cells; details: cited from earlier work
breast cancer T47D cells [10] = details: cited from earlier work
[11] = system: amelanotic melanoma (C-32) cells; details: cited from earlier work

SMILES | IC50 (breast cancer T47D cells [1]) | RM0 [2] | logPTLC [2] | -b [2] | IC50 ([3]; Homo sapiens, C32, 72 h) | IC50 ([4]; Homo sapiens, SNB-19, 72 h) | number of mRNA copies of TP53 [5] | melting point | mRNA copy number BAX to BCL-2 ratio [6] | number of mRNA copies of histone H3 gene vs control [7] | IC50 [8] | IC50 [3] | IC50 [4] | IC50 [9] | IC50 (breast cancer T47D cells [10]) | IC50 [11]
C#CC(=O)OC[C@]12CC[C@@H](C(=C)COP(=O)(OCC)OCC)C1C1CCC3[C@@]4(C)CC[C@H](O)C(C)(C)C4CC[C@@]3(C)[C@]1(C)CC2 (some centres unmarked) [Compound 7a, 30-Diethoxyphosphoryloxy-28-propynoylbetulin] | 2.61 ± 0.42 µM | 5.318 | 6.937 | 0.062 | 2.15 ± 0.22 µM | 0.91 ± 0.09 µM | increase the number of mRNA copies of TP53 | 177 to 180 °C | increased the mRNA copy number to BAX and BCL-2 ratio | reduced the number of mRNA copies of the histone H3 gene | 6.2 ± 0.22 µM |  |  |  |  | 
C=C(COP(=O)(OCC)OCC)[C@@H]1CC[C@]2(COC(=O)C#CC)CC[C@]3(C)C(CCC4[C@@]5(C)CC[C@H](O)C(C)(C)C5CC[C@]43C)C12 (some centres unmarked) [Compound 7b, 28-(2-Butynoyl)-30-diethoxyphosphoryloxybetulin] | 15.4 ± 0.51 µM | 5.431 |  | 0.063 | 0.76 µM | 0.8 µM | increase the number of mRNA copies of TP53 | 133 to 136 °C | increased the mRNA copy number to BAX and BCL-2 ratio | reduced the number of mRNA copies of the histone H3 gene | 4.93 ± 0.44 µM | 0.8 ± 0.03 µM | 0.76 ± 0.14 µM |  |  | 
C=C(COP(=O)(OCC)OCC)C1CCC2(CO)CCC3(C)C(CCC4C5(C)CCC(O)C(C)(C)C5CCC43C)C12 (centres unmarked) [Compound 5, 30-Diethoxyphosphoryloxybetulin] | 1.04 ± 0.14 µM | 3.719 | 4.914 | 0.046 | 43.5 ± 2.5 µM | 10.9 ± 1.33 µM |  | 194 to 195 °C |  |  | 0.4 ± 0.02 µM |  |  |  |  | 
C=C(COP(=O)(OCC)OCC)[C@@H]1CC[C@]2(COC(C)=O)CC[C@]3(C)C(CCC4[C@@]5(C)CC[C@H](OC(C)=O)C(C)(C)C5CC[C@]43C)C12 (some centres unmarked) [Compound 4, 3,28-Diacetoxy-30-diethoxyphosphoryloxybetulin] | 1.3 ± 0.13 µM | 5.740 | 7.470 | 0.064 | 33.9 ± 1.59 µM | 5.01 ± 0.78 µM |  | 61 to 63 °C |  |  | 14.5 ± 1.37 µM |  |  |  |  | 
C#CC(=O)OC[C@]12CC[C@@H](C(=C)C)[C@@H]1[C@H]1CC[C@@H]3[C@@]4(C)CC[C@H](O)C(C)(C)[C@@H]4CC[C@@]3(C)[C@]1(C)CC2 [28-O-propynoylbetulin] |  |  |  |  |  |  |  |  |  |  |  |  |  | 4.2 µM | 111 µM | 16.7 µM
C=C(COP(=O)(OCC)OCC)[C@@H]1CC[C@]2(COC(=O)C#CC3CC3)CC[C@]3(C)C(CCC4[C@@]5(C)CC[C@H](OC(=O)C#CC6CC6)C(C)(C)C5CC[C@]43C)C12 (some centres unmarked) [Compound 6c, 3,28-Di(2-cyclopropylpropynoyl)-30-diethoxyphosphoryloxybetulin] | > 50 µM | 6.419 | 8.330 | 0.071 | > 50 µM | > 50 µM |  | 67 to 70 °C |  |  | > 50 µM |  |  |  |  | 
